In BindingDB's records for doi:10.1016/S0960-894X(96)00249-1 (1996) one finds IC50 data, which are given here for 14 compounds.

Biological target in one assay: not listed separately
Kind of assay: Inhibitory activity against gastrin receptor.
A word on the IC50: it is the concentration that gives 50% inhibition. Take `Cc1cccc(NC(=O)N[C@@H]2N=C(c3cccc(OC(=O)NCCCC(=O)NCCCOc4cccc(CN5CCCCC5)c4)c3)c3ccccc3N(C)C2=O)c1` [{3-[3-(3-Piperidin-1-ylmethyl-phenoxy)-propylcarbamoyl]-propyl}-carbamic acid 3-[(R)-1-methyl-2-oxo-3-(3-m-tolyl-ureido)-2,3-dihydro-1H-benzo[e][1,4]diazepin-5-yl]-phenyl ester]: the half-maximal inhibitory concentration (IC50) worked out at 220 nM.

`Cc1cccc(NC(=O)N[C@@H]2N=C(c3ccccc3)c3ccccc3N(CCOC(=O)NCCCC(=O)NCCSCc3csc(CC(=N)N)n3)C2=O)c1` [(3-{2-[2-(2,2-Diamino-vinyl)-thiazol-4-ylmethylsulfanyl]-ethylcarbamoyl}-propyl)-carbamic acid 2-[(R)-2-oxo-5-phenyl-3-(3-m-tolyl-ureido)-2,3-dihydro-benzo[e][1,4]diazepin-1-yl]-ethyl ester] came in with a concentration for half-maximal inhibition (IC50) of 17 nM.

Consider `CN1C(=O)[C@H](NC(=O)Nc2cccc(CCOC(=O)NCCCNCCSCc3csc(CC(=N)N)n3)c2)N=C(c2ccccc2)c2ccccc21` [(3-{2-[2-(2,2-Diamino-vinyl)-thiazol-4-ylmethylsulfanyl]-ethylamino}-propyl)-carbamic acid 2-{3-[3-((R)-1-methyl-2-oxo-5-phenyl-2,3-dihydro-1H-benzo[e][1,4]diazepin-3-yl)-ureido]-phenyl}-ethyl ester], for which the IC50 was found to be 37 nM.

In turn, `Cc1cccc(NC(=O)N[C@@H]2N=C(c3cccc(OC(=O)NCCCC(=O)NCCSCc4csc(CC(=N)N)n4)c3)c3ccccc3N(C)C2=O)c1` [(3-{2-[2-(2,2-Diamino-vinyl)-thiazol-4-ylmethylsulfanyl]-ethylcarbamoyl}-propyl)-carbamic acid 3-[(R)-1-methyl-2-oxo-3-(3-m-tolyl-ureido)-2,3-dihydro-1H-benzo[e][1,4]diazepin-5-yl]-phenyl ester] displayed a 50% inhibitory concentration (IC50) above 1000 nM.

`CN1C(=O)[C@H](NC(=O)Nc2cccc(COC(=O)NCCNC(=O)CC(=O)NCCCOc3cccc(CN4CCCCC4)c3)c2)N=C(c2ccccc2)c2ccccc21` [(2-{2-[3-(3-Piperidin-1-ylmethyl-phenoxy)-propylcarbamoyl]-acetylamino}-ethyl)-carbamic acid 3-[3-((R)-1-methyl-2-oxo-5-phenyl-2,3-dihydro-1H-benzo[e][1,4]diazepin-3-yl)-ureido]-benzyl ester] returned a concentration for half-maximal inhibition (IC50) of 19 nM. In other words, the double-digit nanomolar range.

On to `CN1C(=O)[C@H](NC(=O)Nc2cccc(COC(=O)NCCCC(=O)NCCCOc3cccc(CN4CCCCC4)c3)c2)N=C(c2ccccc2)c2ccccc21` [{3-[3-(3-Piperidin-1-ylmethyl-phenoxy)-propylcarbamoyl]-propyl}-carbamic acid 3-[3-((R)-1-methyl-2-oxo-5-phenyl-2,3-dihydro-1H-benzo[e][1,4]diazepin-3-yl)-ureido]-benzyl ester], for which the IC50 came to 26 nM.

Turning to `CN1C(=O)[C@H](NC(=O)Nc2cccc(CCOC(=O)NCCC(=O)NCCCOc3cccc(CN4CCCCC4)c3)c2)N=C(c2ccccc2)c2ccccc21` [{2-[3-(3-Piperidin-1-ylmethyl-phenoxy)-propylcarbamoyl]-ethyl}-carbamic acid 2-{3-[3-((R)-1-methyl-2-oxo-5-phenyl-2,3-dihydro-1H-benzo[e][1,4]diazepin-3-yl)-ureido]-phenyl}-ethyl ester], inhibition was half-maximal at 27 nM (IC50).

For `CN1C(=O)[C@H](NC(=O)Nc2cccc(COC(=O)NCCCN3CCN(C(=O)CNCCCOc4cccc(CN5CCCCC5)c4)CC3)c2)N=C(c2ccccc2)c2ccccc21` [[3-(4-{2-[3-(3-Piperidin-1-ylmethyl-phenoxy)-propylamino]-acetyl}-piperazin-1-yl)-propyl]-carbamic acid 3-[3-((R)-1-methyl-2-oxo-5-phenyl-2,3-dihydro-1H-benzo[e][1,4]diazepin-3-yl)-ureido]-benzyl ester], half-maximal inhibition (IC50) required 9 nM.

`Cc1cccc(NC(=O)N[C@@H]2N=C(c3ccccc3)c3ccccc3N(CCOC(=O)NCCCC(=O)NCCCOc3cccc(CN4CCCCC4)c3)C2=O)c1` [{3-[3-(3-Piperidin-1-ylmethyl-phenoxy)-propylcarbamoyl]-propyl}-carbamic acid 2-[(R)-2-oxo-5-phenyl-3-(3-m-tolyl-ureido)-2,3-dihydro-benzo[e][1,4]diazepin-1-yl]-ethyl ester] displayed an IC50 of 135 nM.

Take `CN1C(=O)[C@H](NC(=O)Nc2cccc(COC(=O)NCCN3CCN(C(=O)CNCCCOc4cccc(CN5CCCCC5)c4)CC3)c2)N=C(c2ccccc2)c2ccccc21` [[2-(4-{2-[3-(3-Piperidin-1-ylmethyl-phenoxy)-propylamino]-acetyl}-piperazin-1-yl)-ethyl]-carbamic acid 3-[3-((R)-1-methyl-2-oxo-5-phenyl-2,3-dihydro-1H-benzo[e][1,4]diazepin-3-yl)-ureido]-benzyl ester]: the IC50 worked out at 7 nM.

On to `CN1C(=O)[C@H](NC(=O)Nc2cccc(COC(=O)NCC(=O)NCCCOc3cccc(CN4CCCCC4)c3)c2)N=C(c2ccccc2)c2ccccc21` [{[3-(3-Piperidin-1-ylmethyl-phenoxy)-propylcarbamoyl]-methyl}-carbamic acid 3-[3-((R)-1-methyl-2-oxo-5-phenyl-2,3-dihydro-1H-benzo[e][1,4]diazepin-3-yl)-ureido]-benzyl ester], for which the half-maximal inhibitory concentration (IC50) turned out to be 11 nM.

For the compound `CN1C(=O)[C@H](NC(=O)Nc2cccc(COC(=O)NCCC(=O)NCCCOc3cccc(CN4CCCCC4)c3)c2)N=C(c2ccccc2)c2ccccc21` [{2-[3-(3-Piperidin-1-ylmethyl-phenoxy)-propylcarbamoyl]-ethyl}-carbamic acid 3-[3-((R)-1-methyl-2-oxo-5-phenyl-2,3-dihydro-1H-benzo[e][1,4]diazepin-3-yl)-ureido]-benzyl ester], the midpoint of inhibition, the IC50, lay at 36 nM.

Compound `CN1C(=O)[C@H](NC(=O)Nc2cccc(CCOC(=O)NCCCC(=O)NCCCOc3cccc(CN4CCCCC4)c3)c2)N=C(c2ccccc2)c2ccccc21` [{3-[3-(3-Piperidin-1-ylmethyl-phenoxy)-propylcarbamoyl]-propyl}-carbamic acid 2-{3-[3-((R)-1-methyl-2-oxo-5-phenyl-2,3-dihydro-1H-benzo[e][1,4]diazepin-3-yl)-ureido]-phenyl}-ethyl ester] returned an IC50 of 23 nM.

The target in a further assay is T1, Gastrin/cholecystokinin type B receptor (Homo sapiens, UniProt P32239).
T1 sequence (P32239 whole entry): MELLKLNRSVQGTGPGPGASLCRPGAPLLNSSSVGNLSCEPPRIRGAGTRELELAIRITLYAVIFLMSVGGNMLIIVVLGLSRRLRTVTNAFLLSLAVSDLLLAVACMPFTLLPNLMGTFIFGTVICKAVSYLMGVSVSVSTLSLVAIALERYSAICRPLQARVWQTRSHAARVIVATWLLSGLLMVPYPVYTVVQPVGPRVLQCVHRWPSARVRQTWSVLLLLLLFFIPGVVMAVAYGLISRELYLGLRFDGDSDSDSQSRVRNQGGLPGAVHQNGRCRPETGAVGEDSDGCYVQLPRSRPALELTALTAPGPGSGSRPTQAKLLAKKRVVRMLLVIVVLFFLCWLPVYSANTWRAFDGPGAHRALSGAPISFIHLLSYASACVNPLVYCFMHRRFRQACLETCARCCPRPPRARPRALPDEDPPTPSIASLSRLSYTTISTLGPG
Kind of assay: ChEBML_71518.
Take `CN1C(=O)[C@H](NC(=O)Nc2cccc(COC(=O)NCNC(=O)CC(=O)NCCSCc3csc(CC(=N)N)n3)c2)N=C(c2ccccc2)c2ccccc21` [[(2-{2-[2-(2,2-Diamino-vinyl)-thiazol-4-ylmethylsulfanyl]-ethylcarbamoyl}-acetylamino)-methyl]-carbamic acid 3-[3-((R)-1-methyl-2-oxo-5-phenyl-2,3-dihydro-1H-benzo[e][1,4]diazepin-3-yl)-ureido]-benzyl ester]: 4 nM corresponded to half-maximal inhibition (IC50).
